# What was measured:
# [1] = test system: C57BL6J mice; test: Morris water maze in normal hippocampus mice; type: in vivo; conditions: for Reversal test, escape latency: AF150(S) 0.5 mg/kg; for Training, path length: AF150(S) only the higher dose; for Reversal test, swimming speed: AF150(S)-0.5 mg/kg, AF267B-1 mg/kg, rivastigmine, nicotine; for Training, swimming speed: mouse, in vivo
# Method: (§1) Each group of mice was randomly divided into 7 treatment groups (n=12-14/group). […] All tested compounds and saline were administered once a day for 4 days before starting the behavioral testing, and then for the duration of the 5-day experiment, 30 minutes before testing.
# (§2) Training: Each mouse was trained for four consecutive days, four trials (one block) per day, in which the platform position remained constant and was located in the center of the southeast quadrant of the pool. Within each block of four trials, each mouse started at each of the starting locations, but the sequence of locations was randomly selected. A trial consisted of placing a mouse by hand into the water facing the wall of the pool at one of four starting locations, north, south, east or west, around the pool's perimeter. Escape latency (the time to find the platform), path length (the distance traveled by the mouse) and speed (the swimming rate of the mouse) were recorded on each trial by the monitoring system.
# (§3) For each mouse, the path length, escape latency, and swimming speed of the four trials on each of the 4 training days were grouped into blocks (one block for each day). […] Specific comparisons were performed, using the simple main effects contrasts acalysis, which is specifically suited for testing significant interactions.
# (§4) Transfer test. During trial No. 17, on the fourth day, the platform was entirely removed from the pool (a probe trial). In this trial, the mouse was placed into the water for a limited period (30 s), and its spatial bias was measured by recording the relative distribution of escape latency and path length over the four quadrants of the pool.
# (§5) Reversal test. During trials 18–21, on the fifth day, the platform position was changed to the northwest quadrant, opposite to the training quadrant. Thus, during reversal learning, the platform location was moved relative to the configuration of objects within the room, but the pool occupied the same place within the room throughout the entire experiment. Testing of the rats and measures taken were the same as in training.
# (§6) For each mouse, the escape latency, path length and swimming speed of the reversal test (trials No. 18–21) were grouped into one block.
# [2] = test system: C57BL/10SnJ (B10) mice; test: Morris water maze in small hippocampus mice; type: in vivo; conditions: for Training, escape latency: 0.5 and 1 mg/kg i.p. (rivastigmine, nicotine 1 mg/kg); for Training, path length: AF150(S) both doses, AF267B the higher dose; for Reversal test, escape latency / Training, swimming speed / Transfer test, spatial bias: mouse, in vivo
# Method: C57BL/10SnJ (B10) mice were selected due to their small hippocampi and decreased number of hippocampal pyramidal neurons; the cell loss seemed to be associated with poor spatial learning.
# as §1, §2, §3, §4, §5, §6
# [3] = target: T1, M1 mAChR (Rattus norvegicus, UniProt P08482); test: α-APPs secretion in cell cultures stably transfected with the M1 mAChR; type: cell-based; conditions: for Emax: read-out: APPs levels, % of maximal effect of carbachol, at 100 μm
# T1 construct: expressed in transfected cells; elsewhere rat pheochromocytoma cells
# T1 sequence (P08482 1-460): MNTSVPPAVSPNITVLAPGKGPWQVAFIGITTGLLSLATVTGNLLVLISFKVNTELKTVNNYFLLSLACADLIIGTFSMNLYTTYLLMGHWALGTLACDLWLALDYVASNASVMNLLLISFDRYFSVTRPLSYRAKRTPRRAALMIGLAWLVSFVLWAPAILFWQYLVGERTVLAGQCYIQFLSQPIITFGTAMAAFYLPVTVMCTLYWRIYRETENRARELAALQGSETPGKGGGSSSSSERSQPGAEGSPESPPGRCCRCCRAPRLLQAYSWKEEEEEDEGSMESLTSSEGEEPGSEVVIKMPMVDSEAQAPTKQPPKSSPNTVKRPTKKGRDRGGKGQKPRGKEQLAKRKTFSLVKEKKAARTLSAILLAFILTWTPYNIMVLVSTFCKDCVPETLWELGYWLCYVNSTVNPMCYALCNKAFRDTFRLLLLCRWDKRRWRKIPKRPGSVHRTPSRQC
# Method: Cells were plated in 6 well culture plates and used at the age of 3–5 days after plating. […] Cells exposed to medium alone are referred as controls.
# Cell supernatants were collected into Eppendorff tubes containing a cocktail of protease inhibitors (5 units/ml aprotinin, […], […] and 10^−4M Phenylmethylsulfonylfluoride (PMSF, a protease inhibitor); Sigma, USA). The collected media were concentrated with Centricon tubes (Amicon, Beverly, Mass., USA) and kept frozen for α-APPs secretion determination. Equal amounts of protein (50–100 μg) were loaded and separated on 10% sodium dodecyl sulfate-polyacrylamide gel electrophoresis (SDS-PAGE). Followed by western blotting onto nitrocellulose membrane, blocked by fat-free milk, and probed for 24 hours at 4° C., with anti-Alzheimer's precursor protein, A4 monoclonal antibody 22C11 (0.25 μg/ml; Boehringer Mannheim, Germany). The nitrocellulose membranes were washed and incubated for 2 hours at room temperature with peroxidase-linked goat anti-mouse IgG antibodies (Jackson Immunoresearch, USA), followed by extensive washout and staining with enhanced chemiluminescence detection system (Amersham). Quantitative evaluation of the immunoreactive bands, on the exposed films, was performed by video-imaging densitometry (Gel-aid software; Galai Co., Israel). APPs levels were expressed as x-fold increase over basal levels.
# [4] = test system: trihexyphenidyl rats; test: Passive avoidance in trihexyphenidyl-treated rats; type: in vivo, Wistar rats; conditions: 24 h
# Excerpt: Trihexyphenidyl is a selective M1 muscarinic antagonist that crosses the blood brain barrier and induces memory and learning impairments (Bymaster et al. J Pharmacol Exp Ther 267: 16–24, 1993. Roldan et al Neurosci. Lett. 230: 93–96, 1997; Kimura et al Brain Res. 834: 6–12, 1999).
# Naive Wistar rats were used in the experiments below. The passive avoidance (PA) task is comprised of training (acquisition) phase and a retention phase. In the training procedure each rat was individually placed in the small illuminated compartment and after 60 sec. of familiarization/adaptation, the door to the large compartment was opened and the latency to enter was measured (Initial Latency). Immediately following entry into the dark compartment, the door was closed and inescapable foot shock (0.6 mA for 3 sec) was delivered through the grid floor. A cutoff point of 180 sec was used for initial latency. […] After the acquisition trial the rat was returned to its home cage. Retention of the passive avoidance task was measured 24 h later, by again placing the rat in the light compartment and after a 60 sec adaptation interval, the door was opened and the latency to re-enter the dark compartment was measured. A cutoff point of 300 sec was used for retention latency.
# [5] = test system: ApoE; test: ApoE synthesis and secretion in primary type 1 astrocytes; type: cell-based, rat; conditions: up to 96 hrs
# Method: Primary cultures of type 1 astrocytes were derived from the cortex of Sprague Dawley rats. The compounds tested were dissolved in the culture media and added to cells for 24, 48, 72 and 96 hrs. Media was then removed and kept frozen until ApoE protein levels were evaluated by immunoblot analysis as described in Poirier et al Neuroscience 55: 81–90 (1993). Alternatively the methods of Cedazo-Minuez et al [Neurosci 105: 651–661, 2001} may be employed.
# [6] = test system: Rat pheochromocytoma cells transfected with M1 mAChR; type: cell-based; conditions: β-A25-35 (10 & 20 μM)
# Method: Confluent rat pheochromocytoma cells transfected with the M1 mAChR cultures were detached with trypsin, washed and plated in 24-well, 6-well, 60-mm or 100-mm plates that were precoated with rat tail collagen (Sigma, Israel). Several experiments were performed in serum-free medium. For 3-(4,5-dimethylthiazol-2-yl)-2,5-diphenyl-tetrazolium bromide (MTT) assay, cells (1.5×10^4) were plated in 96-well collagen-precoated plates, in serum-free medium, with or without various drugs for 24 hours. For differentiation, cells were grown in the presence of 1% FCS and 1% HS, with addition of 50 ng/ml NGF for 7 days, to cause full differentiation. […] After 7 days, cells were washed and the medium was either replaced to serum-free, or cells were detached and replated in serum-free medium. Cells in serum-free medium were treated either with Aβ peptides that were previously “aged” or with H2O2. Tested compounds were added together with the insults for the indicated time, unless otherwise stated.
# Cells were plated in 96-well plates in 100 μl medium. After exposure to various treatments, 10 μl of 5 mg/ml MTT [3-(4,5-dimethylthiazol-2-yl)-2,5-diphenyl-tetrazolium bromide; Sigma, Israel] solution in phosphate-buffered saline (PBS) was added to each well. Plates were incubated for 2 hrs at 37° C. followed by hydrocholoric acid-isopropanol addition (100 μl of 0.04N HCl/isopropanol). Plates were read using ELISA reader at a wavelength of 570 nm.
# The MTT assay measures primary early changes within the cells, reflecting the integrity of the electron transport chain and provides a readout of cellular redox activity. This test is a specific, early indicator of the mechanism of β-amyloid-mediated cell death and can be used to detect rapid inhibitory response.
# [7] = test system: Rat pheochromocytoma cells transfected with M1 mAChR; test: Neurite outgrowth response; type: cell-based; conditions: blocked by atropine
# Method: Rat pheochromocytoma cells transfected with M1 mAChR cells were grown as described in Gurwitz et al, (NeuroReport 6, 485,1995). For determination of neurite outgrowth, cells plated in six-well plates were used 3–5 days after-plating. Growth factors were added 1 day after plating and muscarinic agonists were added for the last 24 hrs.
# Cells were observed under an inverted microscope. The percent of cells with neurite longer than cell diameter were scored in three random fields of several hundred cells from each well. Results were expressed as a percent of cells with neurites. Treatments were performed in triplicate cells. Both NGF (50 ng/ml) and EGF (100 ng/ml) were added 1 day after plating. Muscarinic agonists were added 24 hours before scoring.
# [8] = test system: rat primary hippocampal cell cultures; test: APPs secretion in rat primary hippocampal cell cultures; type: cell-based; conditions: 100 μm
# [9] = test system: rat primary cerebral cortex cell cultures; test: APPs secretion in rat primary cortical cell cultures; type: cell-based; conditions: 100 μm
# [10] = test system: tau proteins; test: tau phosphorylation, AT8 immunoblot; type: cell-based; conditions: 100 μM; to the control level
# Excerpt: Following the experimental design of Sadot et al., J. Neurochem. […] By linking an M1 agonist to an antioxidant moiety tau phophorylation may be decreased, providing a new therapeutic strategy in a variety of CNS disease states due to combined damage due to oxidative stress and tau hyperphosphorylation.
molecule,measurement,setting,value
"CCN(C)C(=O)Oc1cccc([C@H](C)N(C)C)c1 [rivastigmine, reference compound]","Reversal test, escape latency",[1],no significant effect
same,"Training, path length",[1],neither AF267B nor rivastigmine had any effect
same,"Reversal test, swimming speed",[1],significantly decreased
same,"Training, swimming speed",[1],significantly decreased the swimming speed
same,"Training, escape latency",[2],positively affected
same,"Training, path length",[2],positively affected
same,"Reversal test, escape latency",[2],no significant effect
same,"Training, swimming speed",[2],Neither rivastigmine nor nicotine had any significant effect
same,"Transfer test, spatial bias",[2],complete spatial bias
same,"α-APPs secretion, comparison in words",[3],not effective
"CC1OC2(CS1)CN1CCC2CC1 (centres unmarked) [AF102B, reference compound]",Retention latency,[4]; 1 mg/kg p.o.,234.4 ± 35.3 s
same,ApoE production,[5],inactive
"CN1CCCC1c1cccnc1 (centres unmarked) [nicotine, reference compound]","Training, escape latency","[1]; 0.5 and 1 mg/kg i.p. (rivastigmine, nicotine 1 mg/kg)",degraded the performance
same,"Reversal test, escape latency",[1],no significant effect
same,"Training, path length",[1],no significant effect
same,"Reversal test, swimming speed",[1],significantly decreased
same,"Training, swimming speed",[1],significantly decreased the swimming speed
same,"Training, escape latency",[2],no improving effect
same,"Training, path length",[2],no significant effect
same,"Reversal test, escape latency",[2],no significant effect
same,"Training, swimming speed",[2],Neither rivastigmine nor nicotine had any significant effect
same,"Transfer test, spatial bias",[2],partial spatial bias
"CCC1SC2(CCN(C)CC2)N(CCc2c[nH]c3ccccc23)C1=O (centres unmarked) [AF703, 2-Ethyl-4-[2-(1H-indol-3-yl)-ethyl]-8-methyl-1-thia-4,8-diaza-spiro[4.5]decan-3-one]",Protection against β-A25-35-induced cytotoxicity,[6],more effective than carbachol and AF267B
"CC[C@@H]1SC2(CCN(C)CC2)N(S(=O)(=O)c2ccc(F)cc2)C1=O [AF700, (S)-2-Ethyl-4-(4-fluoro-benzenesulfonyl)-8-methyl-1-thia-4,8-diaza-spiro[4.5]decan-3-one]",Protection against β-A25-35-induced cytotoxicity,[6],more effective than carbachol and AF267B
same,Emax,[3],50%
same,Neurotrophic effect,[7],neurotrophic
"O=C1CCCN1CC#CCN1CCCC1 [Oxotremorine, oxotremorine, reference compound]","APPs secretion, activity in words",[8],inactive
same,"APPs secretion, activity in words",[9],inactive
"CCC1SC2(CCN(C)CC2)NC1=O (racemic) [AF267, 2-ethyl-8-methyl-1-thia-4,8-diaza-spiro[4.5]decan-3-one]","α-APPs secretion, comparison in words",[3],AF267B is more efficacious and more potent than its racemate
"(S)-Ethyl-4-(3-1H-indol-3-yl-propionyl)-8-methyl-1-thia-4,8-diaza-spiro[4.5]decan-3-one [AF704B]",tau phosphorylation (AT8),[10],induce dephosphorylation of tau proteins
same,Protection against β-A25-35-induced cytotoxicity,[6],more effective than carbachol and AF267B
"CCC1SC2(CCN(C)CC2)N(C(=O)CCc2c[nH]c3ccccc23)C1=O (racemic) [AF704, 2-Ethyl-4-(3-1H-indol-3-yl-propionyl)-8-methyl-1-thia-4,8-diaza-spiro[4.5]decan-3-one]",tau phosphorylation (AT8),[10],induce dephosphorylation of tau proteins
same,Retention latency,"[4]; 0.1 mg/kg, po",214.70 ± 36.63 s
same,Retention latency,[4]; 0.5 mg/kg p.o.,283.50 ± 17.39 s
same,Retention latency,[4]; 1 mg/kg p.o.,274.44 ± 26.97 s
same,Protection against β-A25-35-induced cytotoxicity,[6],more effective than carbachol and AF267B
same,Emax,[3],50%
same,Neurotrophic effect,[7],neurotrophic
